Experimental data: patent US10479795B2 (Incyte Corporation, priority 2016, dated 2019)
pIC50: −log10 of the molar value. Structures can show the parent of a compound that is named as a salt.

Legend:
[1] = target: PI3Kγ (p110γ) Recombinant Human Protein (Homo sapiens (Human), UniProt P48736); experiment: PI3K-γ Scintillation Proximity Assay; format: biochemical; conditions: read-out: PI3Kγ IC50
Summary of the method: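 Recombinant human p110γ assayed at room temperature in 20 mM MOPS pH 6.7, 10 mM MgCl2, 5 mM DTT, 0.03% CHAPS, 2% DMSO, with 20 μM PIP2 and 2 μM ATP plus [γ-33P]ATP. Product captured on WGA SPA beads overnight and counted; IC50 fitted from % of solvent-control activity versus log inhibitor concentration.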

[2] = target: PI3Kδ (p110δ/p85α) Recombinant Human Protein (Homo sapiens (Human), UniProt O00329); experiment: PI3Kδ Scintillation Proximity Assay; format: biochemical
Summary of the method: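 Kinase reaction run at room temperature in 20 mM MOPS pH 6.7, 10 mM MgCl2, 5 mM DTT, 0.03% CHAPS with 20 μM PIP2, 2 μM ATP plus [γ-33P]ATP, 3.4 nM enzyme, 2% DMSO; 120 min. Quenched with WGA SPA beads/EDTA, counted by scintillation; IC50 from % solvent-control activity vs log concentration.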

[3] = test system: Phosphorylated Ribosomal Protein S6 (RPS6); experiment: THP-1 RPS6 ELISA Assay; format: cell-based, Human; conditions: Homo sapiens; THP-1 cells; read-out: PI3Kγ_THP1_RPS6_ELISA IC50
Summary of the method: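 Serum-starved THP-1 cells were preincubated with a concentration range of compound for 2 h at 37 °C, then stimulated with 10 nM MCP-1 for 15 min. Phospho-RPS6 in lysates was quantified by ELISA at 450 nm. IC50 came from percent inhibition versus log inhibitor concentration.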

Chain of PI3Kγ (p110γ) Recombinant Human Protein (P48736 whole entry): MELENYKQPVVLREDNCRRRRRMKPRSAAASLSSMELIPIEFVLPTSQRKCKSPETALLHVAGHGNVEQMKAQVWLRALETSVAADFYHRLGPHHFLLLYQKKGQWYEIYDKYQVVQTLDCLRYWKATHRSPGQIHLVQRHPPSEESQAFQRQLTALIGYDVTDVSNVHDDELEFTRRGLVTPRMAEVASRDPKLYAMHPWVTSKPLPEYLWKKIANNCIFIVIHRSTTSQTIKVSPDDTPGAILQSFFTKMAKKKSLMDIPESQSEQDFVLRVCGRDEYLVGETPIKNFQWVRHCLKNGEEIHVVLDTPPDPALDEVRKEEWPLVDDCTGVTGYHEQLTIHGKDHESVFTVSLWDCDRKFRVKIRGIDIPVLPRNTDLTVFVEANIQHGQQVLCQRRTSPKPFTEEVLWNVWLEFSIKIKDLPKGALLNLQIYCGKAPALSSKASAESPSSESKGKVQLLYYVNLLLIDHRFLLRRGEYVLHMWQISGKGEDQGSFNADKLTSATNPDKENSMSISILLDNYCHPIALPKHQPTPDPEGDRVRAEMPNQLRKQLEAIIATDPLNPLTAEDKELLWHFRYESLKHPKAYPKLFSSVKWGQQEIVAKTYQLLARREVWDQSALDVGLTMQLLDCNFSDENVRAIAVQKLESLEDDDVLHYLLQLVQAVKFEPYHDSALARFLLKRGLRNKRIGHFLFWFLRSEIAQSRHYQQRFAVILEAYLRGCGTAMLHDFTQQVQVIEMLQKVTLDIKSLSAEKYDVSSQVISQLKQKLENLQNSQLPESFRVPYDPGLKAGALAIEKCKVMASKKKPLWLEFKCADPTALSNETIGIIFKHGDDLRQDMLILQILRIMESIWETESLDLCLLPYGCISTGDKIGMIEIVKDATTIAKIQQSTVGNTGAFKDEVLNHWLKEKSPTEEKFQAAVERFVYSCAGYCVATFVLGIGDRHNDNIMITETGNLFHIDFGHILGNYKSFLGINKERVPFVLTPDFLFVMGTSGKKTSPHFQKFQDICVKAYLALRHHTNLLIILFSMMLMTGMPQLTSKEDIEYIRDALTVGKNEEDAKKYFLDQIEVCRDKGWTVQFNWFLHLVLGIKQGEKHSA
Chain of PI3Kδ (p110δ/p85α) Recombinant Human Protein (O00329 whole entry): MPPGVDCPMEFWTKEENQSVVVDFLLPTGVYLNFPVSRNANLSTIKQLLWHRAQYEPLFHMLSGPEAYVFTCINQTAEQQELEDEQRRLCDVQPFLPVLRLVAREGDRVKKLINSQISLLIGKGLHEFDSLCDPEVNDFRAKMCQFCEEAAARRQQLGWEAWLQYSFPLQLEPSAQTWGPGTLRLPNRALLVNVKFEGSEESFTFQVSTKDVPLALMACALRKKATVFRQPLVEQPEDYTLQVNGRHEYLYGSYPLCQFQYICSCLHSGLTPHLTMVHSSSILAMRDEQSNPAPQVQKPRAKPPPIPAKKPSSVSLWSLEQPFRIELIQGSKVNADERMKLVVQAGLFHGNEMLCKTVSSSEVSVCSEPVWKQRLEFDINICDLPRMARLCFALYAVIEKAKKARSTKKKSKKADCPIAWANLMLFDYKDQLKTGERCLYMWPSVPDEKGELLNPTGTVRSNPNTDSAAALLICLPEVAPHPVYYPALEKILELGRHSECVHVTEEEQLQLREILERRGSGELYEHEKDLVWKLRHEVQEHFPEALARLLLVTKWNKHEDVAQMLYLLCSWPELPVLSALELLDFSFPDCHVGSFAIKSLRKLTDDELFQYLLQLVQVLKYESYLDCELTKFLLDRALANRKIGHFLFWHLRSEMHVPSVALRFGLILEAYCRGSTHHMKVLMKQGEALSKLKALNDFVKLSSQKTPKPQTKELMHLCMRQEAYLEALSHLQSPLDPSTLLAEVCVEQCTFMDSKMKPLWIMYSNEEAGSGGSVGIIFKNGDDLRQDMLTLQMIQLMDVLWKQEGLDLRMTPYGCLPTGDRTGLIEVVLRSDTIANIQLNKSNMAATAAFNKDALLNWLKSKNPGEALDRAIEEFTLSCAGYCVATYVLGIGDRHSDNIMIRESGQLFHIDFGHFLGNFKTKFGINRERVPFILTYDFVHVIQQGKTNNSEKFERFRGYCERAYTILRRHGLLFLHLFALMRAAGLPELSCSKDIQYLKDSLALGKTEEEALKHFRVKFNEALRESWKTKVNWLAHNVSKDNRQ
Chain of PI3Kδ (p110δ/p85α) Recombinant Human Protein (P27986 whole entry partner): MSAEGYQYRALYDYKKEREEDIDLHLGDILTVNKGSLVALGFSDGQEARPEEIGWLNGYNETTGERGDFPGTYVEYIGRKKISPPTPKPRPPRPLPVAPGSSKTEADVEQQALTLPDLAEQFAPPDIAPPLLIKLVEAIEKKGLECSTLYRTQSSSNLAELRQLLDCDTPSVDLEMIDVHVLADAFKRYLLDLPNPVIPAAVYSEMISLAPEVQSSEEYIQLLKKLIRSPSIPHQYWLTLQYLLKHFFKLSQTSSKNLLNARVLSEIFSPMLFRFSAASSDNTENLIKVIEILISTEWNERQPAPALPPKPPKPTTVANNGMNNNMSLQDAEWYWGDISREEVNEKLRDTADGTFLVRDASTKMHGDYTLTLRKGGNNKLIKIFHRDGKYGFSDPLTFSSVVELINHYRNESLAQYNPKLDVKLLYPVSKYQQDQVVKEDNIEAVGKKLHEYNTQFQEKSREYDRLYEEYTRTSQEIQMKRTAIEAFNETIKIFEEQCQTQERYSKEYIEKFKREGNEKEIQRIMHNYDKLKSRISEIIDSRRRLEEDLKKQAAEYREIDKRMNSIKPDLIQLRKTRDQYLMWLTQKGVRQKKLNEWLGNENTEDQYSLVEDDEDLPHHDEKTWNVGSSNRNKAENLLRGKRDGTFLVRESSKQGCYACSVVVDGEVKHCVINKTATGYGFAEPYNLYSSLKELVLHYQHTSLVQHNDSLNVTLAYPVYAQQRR

SMILES | pIC50 [1] | pIC50 [2] | pIC50 [3]
[2H][C@]1(NS(=O)(=O)c2ccc(C)c(-c3cnc4c(N)ncnn34)c2)CC[C@@](C)(O)CC1 [Example 507, 3-(4-Aminoimidazo[2,1-f][1,2,4]triazin-7-yl)-N-((1s,4s)-4-hydroxy-4-methylcyclohexyl-1-d)-4-methylbenzenesulfonamide] | > 7.00 | 6.30 to 7.00 | 6.00 to 6.30
[2H][C@]1(NS(=O)(=O)c2ccc(C)c(-c3cnc4c(N)ncnn34)c2)CC[C@](C)(O)CC1 [Example 508, 3-(4-Aminoimidazo[2,1-f][1,2,4]triazin-7-yl)-N-((1r,4r)-4-hydroxy-4-methylcyclohexyl-1-d)-4-methylbenzenesulfonamide trifluoroacetate] | > 7.00 | 6.30 to 7.00 | 6.00 to 6.30
Cc1ccc(S(=O)(=O)N[C@H]2CC[C@](C)(O)CC2)cc1-c1cnc2c(N)ccnn12 [Example 518, 3-(8-Aminoimidazo[1,2-b]pyridazin-3-yl)-N-((1r,4r)-4-hydroxy-4-methylcyclohexyl)-4-methylbenzenesulfonamide] | 6.30 to 7.00 | 5.70 to 6.30 | 6.30 to 7.00
Cc1ccc(S(=O)(=O)NCC(C)(C)O)cc1-c1cnc2c(NCc3ccccc3)nc(C(F)(F)F)cn12 [Example 519, 3-(8-(Benzylamino)-6-(trifluoromethyl)imidazo[1,2-a]pyrazin-3-yl)-N-(2-hydroxy-2-methylpropyl)-4-methylbenzenesulfonamide] | 6.30 to 7.00 | > 7.00 | < 6.00

Continued, values first:

pIC50 [1] | pIC50 [2] | pIC50 [3] | SMILES
> 7.00 | > 7.00 | > 7.00 | Cc1ccc(S(=O)(=O)N2CC[C@H](O)C2)cc1-c1cnc2c(N)nc(-c3ccc(CO)cc3F)cn12 [Example 506, (S)-1-((3-(8-Amino-6-(2-fluoro-4-(hydroxymethyl)phenyl)imidazo[1,2-a]pyrazin-3-yl)-4-methylphenyl)sulfonyl)pyrrolidin-3-ol]
> 7.00 | 5.70 to 6.30 | < 6.00 | CCOC(=O)C1CCCN(S(=O)(=O)c2ccc(C)c(-c3cnc4c(N)nc(C(F)(F)F)cn34)c2)C1 (stereo not drawn) [Example 509, Ethyl 1-((3-(8-amino-6-(trifluoromethyl)imidazo[1,2-a]pyrazin-3-yl)-4-methylphenyl)sulfonyl)piperidine-3-carboxylate]
> 7.00 | 6.30 to 7.00 | < 6.00 | Cc1ccc(S(=O)(=O)N2CCCC(C(=O)O)C2)cc1-c1cnc2c(N)nc(C(F)(F)F)cn12 (stereo not drawn) [Example 510, 1-((3-(8-Amino-6-(trifluoromethyl)imidazo[1,2-a]pyrazin-3-yl)-4-methylphenyl)sulfonyl)piperidine-3-carboxylic acid trifluoroacetate]
> 7.00 | 6.30 to 7.00 | 6.30 to 7.00 | Cc1ccc(S(=O)(=O)N2CCCC(CN)C2)cc1-c1cnc2c(N)nc(C(F)(F)F)cn12 (stereo not drawn) [Example 513, 3-(5-((3-(Aminomethyl)piperidin-1-yl)sulfonyl)-2-methylphenyl)-6-(trifluoromethyl)imidazo[1,2-a]pyrazin-8-amine trifluoroacetate]
> 7.00 | > 7.00 | > 7.00 | Cc1ccc(S(=O)(=O)N2CCCC(N)C2)cc1-c1cnc2c(N)nc(C(F)(F)F)cn12 (stereo not drawn) [Example 516, 3-(5-((3-Aminopiperidin-1-yl)sulfonyl)-2-methylphenyl)-6-(trifluoromethyl)imidazo[1,2-a]pyrazin-8-amine trifluoroacetate]
